According to BigSolDB 2.1:

CCCCN(CCCC)c1ccc(C(=O)c2ccccc2C(=O)O)c(O)c1
solubility (mole fraction)
Conditions | 283.15 K | 288.15 K | 293.15 K | 298.15 K | 303.15 K | 308.15 K | 313.15 K | 318.15 K | 323.15 K
in acetone | 0.015 | 0.0171 | 0.0196 | 0.0216 | 0.0251 | 0.0291 | 0.033 | 0.0386 | 0.0436
in acetonitrile | 0.000701 | 0.000848 | 0.00113 | 0.00138 | 0.0018 | 0.00227 | 0.00284 | 0.00363 | 0.00444
in dichloromethane | 0.0128 | 0.0141 | 0.0157 | 0.0183 | 0.0214 | 0.0251 | – | – | –
in ethanol | 0.00193 | 0.00252 | 0.00334 | 0.00422 | 0.00529 | 0.00641 | 0.0082 | 0.0102 | 0.013
in ethyl acetate | 0.0043 | 0.00516 | 0.00606 | 0.00698 | 0.00782 | 0.009 | 0.00995 | 0.0112 | 0.0126
in isopropanol | 0.00178 | 0.00232 | 0.00302 | 0.0039 | 0.00508 | 0.00667 | 0.00886 | 0.0117 | 0.0147
in isopropyl acetate | 0.00415 | 0.00485 | 0.00544 | 0.00624 | 0.00715 | 0.00815 | 0.00901 | 0.00991 | 0.011
in methanol | 0.00164 | 0.00194 | 0.00238 | 0.00292 | 0.0037 | 0.0047 | 0.00617 | 0.00811 | 0.0111
in n-butyl acetate | 0.00418 | 0.00493 | 0.00556 | 0.00639 | 0.00727 | 0.00824 | 0.00952 | 0.0109 | 0.0123
in n-heptane | 1.5e-05 | 1.8e-05 | 2.3e-05 | 2.7e-05 | 3.3e-05 | 3.8e-05 | 4.3e-05 | 4.8e-05 | 5.2e-05
in n-propanol | 0.0165 | 0.0212 | 0.0258 | 0.0321 | 0.0399 | 0.0496 | 0.062 | 0.0773 | 0.0958
in n-propyl acetate | 0.0037 | 0.00454 | 0.00547 | 0.00631 | 0.00738 | 0.00846 | 0.00983 | 0.0115 | 0.0129
